From US8895574B2, “Benzyloxypyrimidine derivative, agricultural/ horticultural insecticide comprising derivative and method for using same” (Nihon Nohyaku Co., Ltd., priority 2010, dated 2014) come the findings set out here.

This assay concerns cattle tick (Haemaphysalis longicornis). As to the kind of experiment: Acaricidal effect on cattle tick, absorbent cotton in glass bottle. Type of assay: in vivo. The conditions noted are these: 96 h, 100 ppm drug solution, 2 ml, 4 days after inoculation, read-out: acaricidal effect against cattle tick (corrected mortality, judged by criterion). As for the experimental part:
Acaricidal Effect on Cattle Tick (Haemaphysalis longicornis)
An absorbent cotton was placed on the basement of a glass bottle (diameter 3 cm×height 4.5 cm). The pyrimidine derivative of the present invention represented by the formula (I) or a salt thereof was dispersed in water to give a diluted drug solution (100 ppm). The drug solution (2 ml) was added dropwise. Cattle ticks were inoculated by 5 each, and the bottle was capped with a mesh. After 4 days from the inoculation, the dead ticks and live ticks were counted, and the corrected mortality was calculated by the following formula. corrected mortality (%)=(survival rate in untreated group−survival rate in treated group)/(survival rate in untreated group)×100 Diagnostic criteria . . . as defined in Experimental Example 1

What is called mortality is the percentage killed.

`COc1cncnc1OCc1ccc(C(C)(C)C)cc1` [1-1, 4-(4-t-butylbenzyloxy)-5-methoxypyrimidine]: the mortality at 100 ppm was in the range of 50 to 79%.
